Data: ChEMBL document CHEMBL1201862, “PubChem BioAssay data set” (2004)
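Each compound was tested at five concentrations against cells in 96-well plates for 48 hours. GI50 marks 50% less growth.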 Calls of active or inactive are those of the source. Rule as the data show it: active = GI50 up to about 1.1 µM and inactive = higher.

Tests used:
Experiment in all cases: DTP human tumour cell line panel, 48 h
LOX IMVI = test system: LOX IMVI
CCRF-CEM = test system: CCRF-CEM
M14 = test system: M14
NCI-H522 = test system: NCI-H522
MOLT-4 = test system: MOLT-4
SN12C = test system: SN12C
SK-MEL-5 = test system: SK-MEL-5
SF-295 = test system: SF-295
HOP-92 = test system: HOP-92
A498 = test system: A498
HCC 2998 = test system: HCC 2998
UO-31 = test system: UO-31
UACC-257 = test system: UACC-257
U-251 = test system: U-251
K562 = test system: K562
SF-268 = test system: SF-268
RPMI-8226 = test system: RPMI-8226
T47D = test system: T47D
NCI/ADR-RES = test system: NCI/ADR-RES

Measured: GI50

O=C(N/N=C(/c1nc2ccc([N+](=O)[O-])cc2[nH]c1=O)C(O)c1ccc([N+](=O)[O-])cc1)c1ccncc1 (stereo not drawn)
inactive: LOX IMVI > 100 µM | CCRF-CEM 16.3 µM | M14 45.9 µM | NCI-H522 6.64 µM | MOLT-4 > 100 µM | SN12C > 100 µM | SK-MEL-5 36.3 µM | SF-295 > 100 µM | HOP-92 > 100 µM | A498 > 100 µM | HCC 2998 41.6 µM | UO-31 > 100 µM | UACC-257 > 100 µM | U-251 > 100 µM | K562 23.1 µM | SF-268 > 100 µM | RPMI-8226 > 100 µM

CN(C)C(=O)C(F)(F)C(c1ccccc1)C1C(=O)N(C)C(=O)N(C)C1=O (stereo not drawn)
inactive: LOX IMVI > 100 µM | CCRF-CEM > 100 µM | M14 > 100 µM | MOLT-4 > 100 µM | T47D > 100 µM | SK-MEL-5 > 100 µM | SF-295 > 100 µM | HOP-92 > 100 µM | A498 > 100 µM | HCC 2998 > 100 µM | UO-31 > 100 µM | NCI/ADR-RES > 100 µM | UACC-257 > 100 µM | U-251 > 100 µM | K562 > 100 µM | SF-268 > 100 µM | RPMI-8226 > 100 µM

CN1C(=O)C2(C=CC(O)CC2)c2ccccc21 (stereo not drawn)
inactive: LOX IMVI > 100 µM | CCRF-CEM > 100 µM | M14 > 100 µM | NCI-H522 > 100 µM | MOLT-4 > 100 µM | T47D > 100 µM | SN12C > 100 µM | SK-MEL-5 > 100 µM | SF-295 > 100 µM | HOP-92 > 100 µM | A498 > 100 µM | HCC 2998 > 100 µM | UO-31 > 100 µM | NCI/ADR-RES > 100 µM | UACC-257 > 100 µM | U-251 > 100 µM | K562 > 100 µM | SF-268 > 100 µM | RPMI-8226 > 100 µM

COC(=O)/C(=N\N)C(C(=O)C(=O)Nc1nnc(S)[nH]1)c1nc2ccc([N+](=O)[O-])cc2nc1O (stereo not drawn)
inactive: LOX IMVI > 100 µM | CCRF-CEM > 100 µM | M14 > 100 µM | NCI-H522 > 100 µM | MOLT-4 > 100 µM | SN12C > 100 µM | SK-MEL-5 > 100 µM | SF-295 > 100 µM | HOP-92 > 100 µM | A498 > 100 µM | HCC 2998 > 100 µM | UO-31 > 100 µM | UACC-257 > 100 µM | U-251 > 100 µM | K562 > 100 µM | SF-268 > 100 µM | RPMI-8226 > 100 µM

CC1(C(=O)O)CCC[C@@]2(C)C1CC[C@@]1(C)c3cocc3CCC21 (stereo partly drawn)
inactive: LOX IMVI > 100 µM | CCRF-CEM > 100 µM | M14 > 100 µM | MOLT-4 > 100 µM | SN12C > 100 µM | SK-MEL-5 > 100 µM | SF-295 > 100 µM | HOP-92 > 100 µM | A498 > 100 µM | HCC 2998 > 100 µM | UO-31 > 100 µM | UACC-257 > 100 µM | U-251 97.7 µM | K562 40.9 µM | SF-268 > 100 µM | RPMI-8226 > 100 µM

C=CC1(CCC(Br)C(C)(C)Cl)CO1 (stereo not drawn)
inactive: CCRF-CEM > 10 µM | M14 > 10 µM | NCI-H522 > 10 µM | MOLT-4 > 10 µM | T47D > 10 µM | SN12C > 10 µM | SK-MEL-5 > 10 µM | SF-295 > 10 µM | HOP-92 > 10 µM | A498 > 10 µM | HCC 2998 > 10 µM | UO-31 > 10 µM | NCI/ADR-RES > 10 µM | U-251 > 10 µM | K562 > 10 µM | SF-268 > 10 µM | RPMI-8226 > 10 µM

CO[C@@H]1C=C[C@@]23c4cc5c(cc4C(=O)O[C@H]2CN(C)[C@H]3C1)OCO5
inactive: LOX IMVI > 100 µM | CCRF-CEM > 100 µM | M14 > 100 µM | NCI-H522 > 100 µM | MOLT-4 > 100 µM | SN12C > 100 µM | SK-MEL-5 > 100 µM | SF-295 > 100 µM | HOP-92 > 100 µM | A498 > 100 µM | HCC 2998 > 100 µM | UO-31 > 100 µM | UACC-257 > 100 µM | U-251 > 100 µM | K562 > 100 µM | SF-268 > 100 µM | RPMI-8226 > 100 µM

O=C1CC(Cc2n[nH]c3c2CCCC3)CC(=O)N1
inactive: LOX IMVI > 100 µM | CCRF-CEM 37.1 µM | M14 > 100 µM | MOLT-4 > 100 µM | T47D > 100 µM | SN12C > 100 µM | SK-MEL-5 > 100 µM | SF-295 > 100 µM | HOP-92 > 100 µM | A498 > 100 µM | HCC 2998 > 100 µM | NCI/ADR-RES > 100 µM | UACC-257 > 100 µM | U-251 > 100 µM | K562 > 100 µM | SF-268 > 100 µM | RPMI-8226 > 100 µM

C[N+](C)(C)CC(=O)N/N=C(/Cc1nc2ccc(Cl)cc2nc1O)C1=NS(=O)(=O)c2cc(S(N)(=O)=O)c(Cl)cc2N1
inactive: CCRF-CEM > 100 µM | NCI-H522 > 100 µM | MOLT-4 > 100 µM | SN12C > 100 µM | SK-MEL-5 > 100 µM | SF-295 > 100 µM | A498 > 100 µM | HCC 2998 > 100 µM | UO-31 > 100 µM | UACC-257 > 100 µM | K562 > 100 µM | SF-268 > 100 µM | RPMI-8226 > 100 µM

O=C1OC2C=CC1C1(CCOC1=O)C2 (stereo not drawn)
inactive: LOX IMVI > 100 µM | CCRF-CEM > 100 µM | M14 > 100 µM | NCI-H522 > 100 µM | MOLT-4 > 100 µM | SN12C > 100 µM | SK-MEL-5 > 100 µM | HOP-92 > 100 µM | A498 > 100 µM | HCC 2998 > 100 µM | UO-31 > 100 µM | UACC-257 > 100 µM | U-251 > 100 µM | K562 > 100 µM | SF-268 > 100 µM | RPMI-8226 > 100 µM

COc1ccccc1OCC(COC(=O)Nc1ccc(C)cc1)OC(=O)Nc1ccc(C)cc1 (stereo not drawn)
inactive: LOX IMVI 15.8 µM | CCRF-CEM 18.2 µM | M14 19.2 µM | NCI-H522 16.1 µM | MOLT-4 18.9 µM | SN12C 17.9 µM | SK-MEL-5 20.7 µM | SF-295 21.9 µM | HOP-92 7.59 µM | A498 > 100 µM | HCC 2998 20.6 µM | UO-31 17.2 µM | UACC-257 19.3 µM | U-251 13.8 µM | K562 18.5 µM | SF-268 19.5 µM | RPMI-8226 16.3 µM

O=c1[nH]nc(-c2ccccc2)c(-c2ccccc2)c1-n1nc(-c2ccccc2)c2ccccc2c1=O
inactive: CCRF-CEM 27.9 µM | M14 > 100 µM | NCI-H522 34 µM | MOLT-4 17 µM | SN12C > 100 µM | SK-MEL-5 > 100 µM | SF-295 43.2 µM | HOP-92 75.5 µM | A498 > 100 µM | HCC 2998 > 100 µM | UO-31 71.8 µM | UACC-257 > 100 µM | U-251 50.8 µM | K562 27.9 µM | SF-268 > 100 µM | RPMI-8226 32 µM

CCCCCCCCCCCCCC(=O)OCC1OC(OC)C(NC(=O)N(CCCl)N=O)C(O)C1O (stereo not drawn)
inactive: LOX IMVI 10.1 µM | CCRF-CEM 10.3 µM | M14 17.2 µM | NCI-H522 > 10 µM | MOLT-4 2.06 µM | SN12C 25.5 µM | SK-MEL-5 16.2 µM | SF-295 7.43 µM | A498 27.1 µM | HCC 2998 28.1 µM | UO-31 22.6 µM | UACC-257 14.2 µM | U-251 12.6 µM | K562 12.5 µM | SF-268 7.96 µM | RPMI-8226 11.4 µM

Cc1ccc(NC(=O)C(=O)C(C(=O)/C=C/c2ccccc2)C2OC(=O)c3ccccc32)c(C)c1 (stereo not drawn)
inactive: LOX IMVI > 100 µM | CCRF-CEM > 100 µM | M14 > 100 µM | NCI-H522 > 100 µM | MOLT-4 77.4 µM | SN12C > 100 µM | SK-MEL-5 > 100 µM | SF-295 > 100 µM | HOP-92 > 100 µM | A498 > 100 µM | HCC 2998 > 100 µM | UO-31 > 100 µM | UACC-257 > 100 µM | U-251 > 100 µM | K562 85.7 µM | SF-268 > 100 µM | RPMI-8226 60.4 µM

Cc1ccc([N+](=O)[O-])cc1S(=O)(=O)Nc1ccc(C2=NN(S(=O)(=O)c3cc([N+](=O)[O-])ccc3C)C(c3ccccc3O)C2)cc1 (stereo not drawn)
inactive: LOX IMVI > 100 µM | CCRF-CEM > 100 µM | M14 > 100 µM | NCI-H522 44 µM | MOLT-4 26.7 µM | T47D > 100 µM | SN12C > 100 µM | SK-MEL-5 > 100 µM | SF-295 34.4 µM | HOP-92 49.9 µM | A498 10.4 µM | HCC 2998 > 100 µM | UO-31 > 100 µM | NCI/ADR-RES 99.8 µM | UACC-257 > 100 µM | U-251 30.6 µM | K562 31.6 µM | SF-268 26.5 µM | RPMI-8226 51.1 µM

O=[N+]([O-])c1ccc(C2CC(c3ccccc3Cl)=Nc3ccccc3S2)cc1 (stereo not drawn)
inactive: LOX IMVI 3.7 µM | CCRF-CEM 2.07 µM | M14 12.1 µM | NCI-H522 2.89 µM | MOLT-4 1.56 µM | SN12C 4.02 µM | SK-MEL-5 3.95 µM | SF-295 7.5 µM | HOP-92 6 µM | A498 1.87 µM | HCC 2998 23.9 µM | UO-31 4.88 µM | UACC-257 12 µM | U-251 5.27 µM | K562 1.75 µM | SF-268 4.15 µM | RPMI-8226 1.66 µM
